The target of the assay is T1, NRASQ61H interaction with PI3K, CRAF, RALGDS (Homo sapiens, UniProt P01111, Q61H).
T1 construct: expressed in transfected cells; host or cells: HEK293T
Kind of assay: BRET2 cell assay, NRAS Q61H-effector interaction. Type of assay: cell-based. The settings on record: HEK293T cells, 5, 10 and 20 μM, 20 h. The source says:
The BRET ratio corresponds to the light emitted by the GFP2 acceptor constructs (515 nm±30) upon addition of Coelenterazine 400a divided by the light emitted by the RLuc8 donor constructs (410 nm±80). The normalized BRET ratio is the BRET ratio normalized to the DMSO negative and calculated as follows: (BRETcompound/BRETDMSO)×100, where BRETcompound corresponds to the BRET ratio for the compound-treated cells, BRETDMSO to the DMSO-treated cells. Each experiment was repeated at least three times. Statistical analyses were performed using a one-way ANOVA followed by Dunnett's post-tests (*P<0.05, **P<0.01, ***P<0.001, ****P<0.0001). Where error bars are presented, they correspond to mean values±SD of biological repeats (a-c).
HEK293T cells were transfected 24 hr with plasmids expressing the NRAS Q61H […] and HRAS G12V (B, D) biosensors together with the indicated RBDs of PI3K, CRAF and RALGDS (A, B) or full-length CRAF. […]
650,000 HEK293T were seeded in each well of a 6 well plate. […] The final concentrations in the cells were 0, 5, 10 and 20 µM (therefore the intermediate 10× concentrations were 0, 50, 100 and 200 μM. 10 μL of 10× compounds were added in each well of the 96 well plate to 0, 5, 10 and 20 µM final concentrations (with final 0.2% DMSO each). Quadruplicates were performed for each point. Cells were left for an additional 20 hours at 37° C. before the BRET2 signal reading directly after addition of Coelenterazine 400a substrate (10 µM final) to cells (Cayman Chemicals, cat #16157). BRET2 reading was carried out on an Envision instrument (2103 Multilabel Reader, PerkinElmer) with the BRET2 Dual Emission optical module (515 nm±30 and 410 nm±80; PerkinElmer).
The ability of Example compound 56 to inhibit RAS-effector PPI using the above cell-based RAS-effector BRET2 assay was investigated. […] We determined the effect of compound 56 (labelled Abd-7) on the interaction of KRAS^G12D and with PI3Kα and PI3Kγ, CRAF RAS-binding domain (RBD) and RALGDS RAS-associating domain (RA) compared with the low affinity Reference Compound Abd-2 FIG. 1a). […]
Background: Bioluminescence resonance energy transfer reports proximity on the nanometre scale.

Entries after “also recorded” stand apart in the source; their conditions may differ.

As to `COc1nc(-c2cccc3c2OCCO3)ccc1Nc1ccc(CN(C)C)cc1` [compound 56, [6-(2,3-Dihydro-benzo[1,4]dioxin-5-yl)-2-methoxy-pyridin-3-yl]-(4-dimethylaminomethyl-phenyl)-amine], the “Effect on BRET signal, NRAS Q61H/effector interactions” value was “interferes with all mutant RAS family member PPIs”. As to `COc1cc(-c2cccc3c2OCCO3)ccc1Nc1cccc(CN(C)C)c1.O=CO` [compound 72, [4-(2,3-Dihydro-benzo[1,4]dioxin-5-yl)-2-methoxy-phenyl]-(3-dimethylaminomethyl-phenyl)-amine formate salt], the “Effect on BRET signal, NRAS Q61H/effector interactions” value (formate salt) was “inhibits; also recorded: disturbs the BRET2 signal in dose response manner”.

The values are drawn from patent US12024506B2, “Compounds” (Oxford University Innovation Limited, priority 2018, dated 2024).
